In series [1] the test system is SMN2 minigene mRNA (SMN2-A minigene) in HEK293H cells. As to the kind of experiment: SMN2 minigene mRNA splicing RT-qPCR assay in cultured cells. The class given is cell-based, human. The following applies: Homo sapiens, HEK293-H; concentration increasing full length SMN2 mRNA 1.5-fold relative to vehicle-treated cells; HEK293H cells with SMN2-A minigene, 24 hours, 7-point concentration data; read-out: EC1.5x for production of full length SMN2 mRNA. The method in brief: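 Potency reflects the concentration that lifts full-length SMN2 minigene mRNA 1.5-fold above vehicle in stably transfected HEK293H cells after 24 h of treatment. Transcript abundance came from RT-qPCR as (1+E)^−Ct, normalized to GAPDH; endogenous SMN1/SMN2 are not detected.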
A general note: In qPCR the cycle at which signal appears reflects the starting amount.

The subject of series [2] is Smn protein in SMA patient fibroblast cells (GM03813). Put plainly: Smn protein assay in cultured cells (SMN HTRF). The class given is cell-based, human. The following applies: SMA patient fibroblast cells, 48 hours; for EC1.5x for Smn protein expression: 7-point concentration curve, SMN HTRF, concentration producing 1.5 times Smn protein vs DMSO vehicle control; for maximum fold (Fold) increase of Smn protein: 7-point concentration data, fold relative to vehicle control. The essentials: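 Smn protein abundance in treated SMA fibroblasts was measured by HTRF after 48 h compound exposure. The reported EC1.5× is the concentration producing 1.5 times vehicle Smn levels.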
(In TR-FRET formats the signal depends on donor and acceptor labels being close together.)

The results in this text go back to patent US11753407B2, “Compounds for treating spinal muscular atrophy” (PTC Therapeutics, Inc., priority 2012, dated 2023).

As a reminder, the melting point is the temperature, or range, at which the solid turns liquid. On to `COc1ccc(-c2cc(=O)n3cc(C4=CCNCC4)ccc3n2)cc1OC` [Cpd 143, 2-(3,4-dimethoxyphenyl)-7-(1,2,3,6-tetrahydropyridin-4-yl)-4H-pyrido[1,2-a]pyrimidin-4-one], for which the melting point fell in the range of 196 to 198 °C. Moreover, the EC (1.5-fold increase) in series [1] was < 0.1 µM. For the same compound, in series [2], the “EC1.5x for Smn protein expression” value was “**** (an EC1.5x≤0.3 μM is indicated by four stars (****))” and the “maximum fold (Fold) increase of Smn protein” value (“maximum fold (Fold) increase” for short) is on record as “***** (a fold increase >1.65 is indicated by five stars (*****))”.
The compound `CCc1nc(C)cn2cc(-c3cc(=O)n4cc(N5CCN6CCC[C@H]6C5)ccc4n3)cc12` [Compound 782, 2-(1-ethyl-3-methylpyrrolo[1,2-a]pyrazin-7-yl)-7-[(8aS)-hexahydropyrrolo[1,2-a]pyrazin-2(1H)-yl]-4H-pyrido[1,2-a]pyrimidin-4-one] yielded a melting point of 220 to 222 °C. Moreover, the EC (1.5-fold increase) in series [1] is < 0.1 µM. In addition, in series [2], the “EC1.5x for Smn protein expression” value is “**** (an EC1.5x≤0.3 μM is indicated by four stars (****))” and the “maximum fold (Fold) increase” value is on record as “***** (a fold increase >1.65 is indicated by five stars (*****))”.
The compound `Cc1cn2nc(-c3cc(=O)n4cc(N5CCN(C6CC6)CC5)ccc4n3)cc2c(C)n1` [Compound 341, 7-(4-cyclopropylpiperazin-1-yl)-2-(4,6-dimethylpyrazolo[1,5-a]pyrazin-2-yl)-4H-pyrido[1,2-a]pyrimidin-4-one] returned a melting point of 189 to 192 °C. Further, the EC (1.5-fold increase) in series [1] lay in the range of 0.3 to 1 µM. Further, in series [2], the “EC1.5x for Smn protein expression” value is “*** (an EC1.5× between >0.3 μM and ≤1 μM is indicated by three stars (***))”; the “maximum fold (Fold) increase” value was “***** (a fold increase >1.65 is indicated by five stars (*****))”.
The compound `COc1ccc(-c2cc(=O)n3cc(N4CCC(N(C)C)CC4)ccc3n2)cc1F` [Compound 185, 7-[4-(dimethylamino)piperidin-1-yl]-2-(3-fluoro-4-methoxyphenyl)-4H-pyrido[1,2-a]pyrimidin-4-one] had a melting point of 196 to 201 °C. In addition, the EC (1.5-fold increase) in series [1] is < 0.1 µM. For the same compound, the “maximum fold (Fold) increase” value in series [2] was “*** (a fold increase between >1.35 and ≤1.5 is indicated by three stars (***))”.
In turn, `Cc1cn2nc(-c3cc(=O)n4cc(N5CCN(C)CC5)ccc4n3)cc2cn1` [Compound 440, 7-(4-methylpiperazin-1-yl)-2-(6-methylpyrazolo[1,5-a]pyrazin-2-yl)-4H-pyrido[1,2-a]pyrimidin-4-one] came in with a melting point of 230 to 240 °C. The EC (1.5-fold increase) in series [1] was < 0.1 µM. Besides, in series [2], the “EC1.5x for Smn protein expression” value is on record as “**** (an EC1.5x≤0.3 μM is indicated by four stars (****))”; the “maximum fold (Fold) increase” value was “**** (a fold increase between >1.5 and ≤1.65 is indicated by four stars (****))”.
Turning to `COc1ccc(-c2cc(=O)n3cc(N4CC[C@H](N(C)C)C4)ccc3n2)cc1OC` [Compound 147, 2-(3,4-dimethoxyphenyl)-7-[(3S)-3-(dimethylamino)pyrrolidin-1-yl]-4H-pyrido[1,2-a]pyrimidin-4-one], the melting point lay in the range of 156 to 158 °C. In series [1], the EC (1.5-fold increase) lay in the range of 1 to 3 µM. Further, in series [2], the “maximum fold (Fold) increase” value is reported as “* (A maximum fold increase of ≤1.2 is indicated by one star (*))”.
For the compound `Cc1nc2ccc(-c3cc(=O)n4cc(C5=CCN(C6CC6)CC5)ccc4n3)cc2s1` [Compound 395, 7-(1-cyclopropyl-1,2,3,6-tetrahydropyridin-4-yl)-2-(2-methyl-1,3-benzothiazol-6-yl)-4H-pyrido[1,2-a]pyrimidin-4-one], the melting point was 158 to 160 °C. Also, the EC (1.5-fold increase) in series [1] was in the range of 0.3 to 1 µM. For the same compound, the “maximum fold (Fold) increase” value in series [2] is “** (a fold increase between >1.2 and ≤1.35 is indicated by two stars (**))”.
Compound `Cc1cn2nc(-c3cc(=O)n4cc(N5CCN(C)[C@@H](C)C5)ccc4n3)cc2c(C)n1` [Compound 258, 7-[(3S)-3,4-dimethylpiperazin-1-yl]-2-(4,6-dimethylpyrazolo[1,5-a]pyrazin-2-yl)-4H-pyrido[1,2-a]pyrimidin-4-one] displayed a melting point of 220 to 223 °C. For the same compound, the EC (1.5-fold increase) in series [1] was < 0.1 µM. For the same compound, in series [2], the “EC1.5x for Smn protein expression” value was “*** (an EC1.5× between >0.3 μM and ≤1 μM is indicated by three stars (***))”; the “maximum fold (Fold) increase” value is “**** (a fold increase between >1.5 and ≤1.65 is indicated by four stars (****))”.
On to `O=c1cc(-c2cccc(C(F)(F)F)c2)nc2ccc(N3CCNCC3)cn12` [Compound 43, 7-(piperazin-1-yl)-2-[3-(trifluoromethyl)phenyl]-4H-pyrido[1,2-a]pyrimidin-4-one], for which the melting point lay in the range of 199 to 207 °C. Besides, in series [1], the EC (1.5-fold increase) was in the range of 0.1 to 0.3 µM. For the same compound, in series [2], the “EC1.5x for Smn protein expression” value was “** (an EC1.5× between >1 μM and ≤3 μM is indicated by two stars (**))”; the “maximum fold (Fold) increase” value was “*** (a fold increase between >1.35 and ≤1.5 is indicated by three stars (***))”.
Consider `Cc1nc2cc(-c3cc(=O)n4cc(N5CCCN(C)CC5)ccc4n3)ccc2s1` [Compound 177, 2-(2-methyl-1,3-benzothiazol-5-yl)-7-(4-methyl-1,4-diazepan-1-yl)-4H-pyrido[1,2-a]pyrimidin-4-one], for which the melting point is 165 to 170 °C. The EC (1.5-fold increase) in series [1] lay in the range of 0.1 to 0.3 µM. In addition, the “maximum fold (Fold) increase” value in series [2] is “*** (a fold increase between >1.35 and ≤1.5 is indicated by three stars (***))”.
On to `COc1ccc(-c2cc(=O)n3cc(C4=CCNCC4)c(C)cc3n2)cc1OC` [Compound 389, 2-(3,4-dimethoxyphenyl)-8-methyl-7-(1,2,3,6-tetrahydropyridin-4-yl)-4H-pyrido[1,2-a]pyrimidin-4-one], for which the melting point was 175 °C (dec.). In series [1], the EC (1.5-fold increase) is 1 to 3 µM. Moreover, the “maximum fold (Fold) increase” value in series [2] was “** (a fold increase between >1.2 and ≤1.35 is indicated by two stars (**))”.
`Cc1cn2cc(-c3cc(=O)n4cc(C5CCN(CCO)CC5)ncc4n3)cc(Cl)c2n1` [Compound 599, 2-(8-chloro-2-methylimidazo[1,2-a]pyridin-6-yl)-7-[1-(2-hydroxyethyl)piperidin-4-yl]-4H-pyrazino[1,2-a]pyrimidin-4-one]: the melting point was in the range of 266 to 268 °C. Also, the EC (1.5-fold increase) in series [1] was < 0.1 µM. In series [2], the “EC1.5x for Smn protein expression” value is recorded as “**** (an EC1.5x≤0.3 μM is indicated by four stars (****))” and the “maximum fold (Fold) increase” value is “***** (a fold increase >1.65 is indicated by five stars (*****))”.
For the compound `Cc1nc2cc(-c3cc(=O)n4cc(N5CCC(N)CC5)ccc4n3)ccc2s1` [Compound 348, 7-(4-aminopiperidin-1-yl)-2-(2-methyl-1,3-benzothiazol-5-yl)-4H-pyrido[1,2-a]pyrimidin-4-one], the melting point is 190 to 192 °C. Also, in series [1], the EC (1.5-fold increase) lay in the range of 0.1 to 0.3 µM. Moreover, the “maximum fold (Fold) increase” value in series [2] is “** (a fold increase between >1.2 and ≤1.35 is indicated by two stars (**))”.
Consider `COc1ccc(-c2cc(=O)n3cc(N4C[C@H]5CCCN(C)[C@H]5C4)ccc3n2)cc1F` [Compound 313, 2-(3-fluoro-4-methoxyphenyl)-7-[(4aR,7aR)-1-methyloctahydro-6H-pyrrolo[3,4-b]pyridin-6-yl]-4H-pyrido[1,2-a]pyrimidin-4-one], for which the melting point was in the range of 223 to 227 °C. The EC (1.5-fold increase) in series [1] fell in the range of 1 to 3 µM. In addition, the “maximum fold (Fold) increase” value in series [2] is on record as “* (A maximum fold increase of ≤1.2 is indicated by one star (*))”.
